Reference: US10730887B2, “Compound containing tricyclic heteroaryl group” (Hangzhou Innogate Pharma Co., Ltd., priority 2016, dated 2020)

Tests used:
CDK4/CycD3 = CDK4/CycD3 (Homo sapiens, UniProt P11802); assay: CDK4 kinase activity inhibition, Caliper mobility shift assay; type: biochemical
Experimental: (§1) CDK2/CycA2, CDK4/CycD3 and CDK6/cycD3 protein kinase activities were determined using the Caliper mobility shift assay. The compound was dissolved in DMSO and diluted with kinase buffer (CDK2/CycA2 and CDK6/cycD3 with 50 mM HEPES (pH 7.5), 10 mM MgCl2, 0.0015% Brij-35, and 2 mM dithiothreitol; CDK4/CycD3 with 20 mM HEPES (pH 7.5), 10 mM MgCl2, 0.01% Triton X-100, and 2 mM dithiothreitol), 5 μl of a 5-fold final concentration of the compound (10% DMSO) was added to a 384-well plate. Add 10 μL of 2.5-fold […] enzyme solution and incubate for 10 minutes at room temperature, then add 10 μL of 2.5-fold substrate solution (corresponding enzyme and substrate concentration CDK2/CycA2 12 nM, ATP Kin 39 μM; CDK4/CycD3 10 nM, ATP Km 221 μM; CDK6/cycD3 15 nM, ATP Km […]) Incubate at 28° C. (60 min CDK2, 180 min CDK4, 60 min CDK6) followed by 25 μl stop solution (100 mM HEPES (pH 7.5), 0.015% Brij-35, 0.2% Coating Reagent #3, 50 mM EDTA) Stop the reaction. Conversion rate data was read on a Caliper EZ Reader 11 (Caliper Life Sciences). The conversion rate was converted into inhibition rate data (% inhibition rate=(max−conversion rate)/(max−min)*100) Where max is the conversion of the DMSO control and min is the conversion of the enzyme-free control. Curves were plotted with compound concentration and inhibition rate on the horizontal and vertical coordinates, and the curve was fitted using XLFit excel add-in version 4.3.1 software and IC50 was calculated.

CDK6/cycD3 = CDK6/cycD3 (Homo sapiens, UniProt Q00534); assay: CDK6 kinase activity inhibition, Caliper mobility shift assay; type: biochemical
CDK6/cycD3, sequence (Q00534 whole entry, species assumed): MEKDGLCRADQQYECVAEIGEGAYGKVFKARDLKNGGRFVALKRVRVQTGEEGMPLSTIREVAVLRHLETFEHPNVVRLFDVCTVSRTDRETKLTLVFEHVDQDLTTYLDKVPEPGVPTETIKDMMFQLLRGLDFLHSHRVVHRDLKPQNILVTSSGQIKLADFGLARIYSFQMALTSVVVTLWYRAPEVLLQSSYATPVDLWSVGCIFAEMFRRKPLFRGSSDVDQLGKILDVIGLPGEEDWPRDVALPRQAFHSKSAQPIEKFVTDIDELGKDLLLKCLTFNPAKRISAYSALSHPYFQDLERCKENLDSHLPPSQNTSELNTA
CDK6/cycD3, sequence (P30281 whole entry partner, species assumed): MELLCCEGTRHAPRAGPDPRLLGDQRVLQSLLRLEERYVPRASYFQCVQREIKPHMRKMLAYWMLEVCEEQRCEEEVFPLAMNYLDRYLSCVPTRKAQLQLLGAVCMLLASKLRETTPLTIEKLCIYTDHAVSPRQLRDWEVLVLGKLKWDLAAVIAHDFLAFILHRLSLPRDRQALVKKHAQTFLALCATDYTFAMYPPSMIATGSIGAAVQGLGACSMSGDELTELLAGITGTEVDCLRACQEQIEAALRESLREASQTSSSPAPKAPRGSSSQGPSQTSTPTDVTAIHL
Experimental: as §1

CDK2/CycA2 = CDK2/CycA2 (Homo sapiens, UniProt P24941); assay: CDK2 kinase activity inhibition, Caliper mobility shift assay; type: biochemical
Experimental: as §1

[1] = Pharmacokinetic study in mice, intragastric administration; type: in vivo; conditions: mouse, male ICR mice, PO dose 5 mg/kg, plasma; for AUC(0-t): read-out: AUC(0-24)
Experimental: Instrument: API4000+LC/MS instrument manufactured by AB Sciex. All measurement data was collected and processed by Analyst 1.6.3 software, and data was calculated and processed by Microsoft Excel. Using the DAS 3.2.8 software, the statistical moment method was used to calculate the pharmacokinetic parameters. t mainly includes kinetic parameters Tmax, T½, Cmax, AUC(0-t) and the like Column: ACQUITY UPLC BEH C18 (2.1 mm×50 mm, 1.7 μm), column temperature 40° C.; mobile phase A is water (0.1% formic acid+5 mM ammonium acetate), mobile phase B is acetonitrile (0.1% acetic acid). The flow rate was 0.30 ml/min and the isocratic elution of 90% B was maintained for 1.5 minutes. Injection volume: 5 μL.
Animals: 12 male ICR mice, weighing 22-26 g, were used after 2 days of feeding in the laboratory of the experimental animal center. They were fasted 12 hours before the administration and 4 hours after the administration, and were free to drink during the test. Mice were randomly divided into four groups of 3 animals each. After intragastric administration, blood samples were taken at two different time points in each group.
Solvent: 0.5% Methylcellulose (aqueous solution containing 0.4% Tween 80). Formulation of intragastric administration solution. The compound is accurately weighed, added to the solvent, and sonicated at room temperature for 5 minutes to completely dissolve the drug to prepare a drug solution of 0.33 mg/ml.
Drug sample: A representative compound of the structure represented by the patent formula (I) of the present invention generally adopts a plurality of samples having similar structures (molecular weight difference of more than 2 units), accurately weighed, and administered together (cassette PK). This allows multiple compounds to be screened simultaneously and their oral absorption rates compared. Single drug administration was also used to study the pharmacokinetics of drug samples in mice.
Blood was taken from the eyelids at 0.25, 0.5, 1, 2, 4, 8, 12, and 24 hours after intragastric administration. In the heparin-treated tube, the supernatant was centrifuged for LC-MS/MS analysis.
Accurately weigh the compounds to different concentrations, perform quantitative analysis on the mass spectrometer to establish a standard curve, and then test the concentration of the compound in the above plasma to obtain the concentration of the compound at different time points. All the measured data were collected and processed by the relevant software, and the statistical moment method was used to calculate the pharmacokinetic parameters (mainly including the kinetic parameters Tmax, T1/2, Cmax, AUC(0-t), etc.).

Jak1 = Jak1 (Homo sapiens, UniProt P23458); assay: Jak1 kinase activity inhibition, Caliper Reader; type: biochemical
Jak1, sequence (P23458 whole entry, species assumed): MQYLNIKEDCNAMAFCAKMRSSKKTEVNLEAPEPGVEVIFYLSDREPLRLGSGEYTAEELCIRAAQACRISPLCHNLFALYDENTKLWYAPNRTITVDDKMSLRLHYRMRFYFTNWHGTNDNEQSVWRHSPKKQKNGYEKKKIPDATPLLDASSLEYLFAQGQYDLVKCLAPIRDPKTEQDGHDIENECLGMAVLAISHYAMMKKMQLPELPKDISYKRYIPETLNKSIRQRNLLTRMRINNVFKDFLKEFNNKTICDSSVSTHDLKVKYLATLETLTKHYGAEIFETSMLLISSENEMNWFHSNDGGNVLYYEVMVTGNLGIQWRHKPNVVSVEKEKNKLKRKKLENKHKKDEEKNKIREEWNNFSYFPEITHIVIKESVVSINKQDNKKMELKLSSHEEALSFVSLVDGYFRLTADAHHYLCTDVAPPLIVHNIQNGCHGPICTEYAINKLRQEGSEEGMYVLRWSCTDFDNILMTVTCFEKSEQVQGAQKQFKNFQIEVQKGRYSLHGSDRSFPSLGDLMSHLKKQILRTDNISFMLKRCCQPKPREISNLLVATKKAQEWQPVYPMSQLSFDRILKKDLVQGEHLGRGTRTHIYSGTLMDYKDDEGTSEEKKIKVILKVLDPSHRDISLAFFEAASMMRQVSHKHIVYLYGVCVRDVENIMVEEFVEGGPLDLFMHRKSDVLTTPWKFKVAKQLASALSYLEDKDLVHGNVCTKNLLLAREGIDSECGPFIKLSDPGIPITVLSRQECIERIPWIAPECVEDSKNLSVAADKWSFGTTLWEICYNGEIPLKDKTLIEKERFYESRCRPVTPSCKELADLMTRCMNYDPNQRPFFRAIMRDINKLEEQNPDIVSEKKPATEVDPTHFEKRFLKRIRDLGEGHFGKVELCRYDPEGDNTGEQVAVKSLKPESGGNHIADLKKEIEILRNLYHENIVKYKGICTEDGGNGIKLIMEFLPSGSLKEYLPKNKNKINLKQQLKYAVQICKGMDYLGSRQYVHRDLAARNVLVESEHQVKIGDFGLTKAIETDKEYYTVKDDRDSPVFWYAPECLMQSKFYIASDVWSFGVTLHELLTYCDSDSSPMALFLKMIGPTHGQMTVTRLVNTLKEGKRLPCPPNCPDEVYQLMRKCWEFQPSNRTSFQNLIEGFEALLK
Experimental: (§2) Kinase JAk1 and Jak2 enzyme inhibition IC50 evaluation experiments: The buffer was configured with the following components: 50 mM HEPES, pH 7.5, 0.00015% Brij-35. Compounds were placed in a concentration gradient in 100% DMSO and diluted to 10% DMSO with buffer and added to 384 well plates. For example, when the initial concentration of the compound is […], it is made into 12.5 μM with 100% DMSO, and diluted by 5 or 6 concentrations, and then diluted 10-fold with buffer to prepare an intermediate dilution of the compound containing 10% DMSO. Transfer 5 μL, to 384-well plate. The Jak1 and Jak2 enzymes were diluted to the optimal concentration with the following buffer: 50 mM HEPES, pH 7.5, 0.00015% Brij-35, 2 mM DTT. Transfer 10 μL to a 384-well plate and incubate with the compound for 10-15 minutes. The substrate was diluted to the optimal concentration with the following buffer: 50 mM HEPES, pH 7.5, 0.00015% Brij-35, 10 mM MgCl2, adenosine triphosphate at Km. The reaction was initiated by adding 10 μL to a 384-well plate and reacted at 28° C. for 1 hour. The conversion rate was then read using a Caliper Reader and the inhibition rate was calculated. The formula is as follows: Percent inhibition=(max−conversion)/(max−min)*100. Where max is the conversion of the DMSO control and min is the conversion of the enzyme-free control. Fit the IC50 value with XLFit excel add-in version 5.4.0.8. Fitting formula: Y=Bottom+(Top−Bottom)/(1+(IC50/X)^HillSlope).

Jak2 = Jak2 (Homo sapiens, UniProt O60674); assay: Jak2 kinase activity inhibition, Caliper Reader; type: biochemical
Jak2, sequence (O60674 whole entry, species assumed): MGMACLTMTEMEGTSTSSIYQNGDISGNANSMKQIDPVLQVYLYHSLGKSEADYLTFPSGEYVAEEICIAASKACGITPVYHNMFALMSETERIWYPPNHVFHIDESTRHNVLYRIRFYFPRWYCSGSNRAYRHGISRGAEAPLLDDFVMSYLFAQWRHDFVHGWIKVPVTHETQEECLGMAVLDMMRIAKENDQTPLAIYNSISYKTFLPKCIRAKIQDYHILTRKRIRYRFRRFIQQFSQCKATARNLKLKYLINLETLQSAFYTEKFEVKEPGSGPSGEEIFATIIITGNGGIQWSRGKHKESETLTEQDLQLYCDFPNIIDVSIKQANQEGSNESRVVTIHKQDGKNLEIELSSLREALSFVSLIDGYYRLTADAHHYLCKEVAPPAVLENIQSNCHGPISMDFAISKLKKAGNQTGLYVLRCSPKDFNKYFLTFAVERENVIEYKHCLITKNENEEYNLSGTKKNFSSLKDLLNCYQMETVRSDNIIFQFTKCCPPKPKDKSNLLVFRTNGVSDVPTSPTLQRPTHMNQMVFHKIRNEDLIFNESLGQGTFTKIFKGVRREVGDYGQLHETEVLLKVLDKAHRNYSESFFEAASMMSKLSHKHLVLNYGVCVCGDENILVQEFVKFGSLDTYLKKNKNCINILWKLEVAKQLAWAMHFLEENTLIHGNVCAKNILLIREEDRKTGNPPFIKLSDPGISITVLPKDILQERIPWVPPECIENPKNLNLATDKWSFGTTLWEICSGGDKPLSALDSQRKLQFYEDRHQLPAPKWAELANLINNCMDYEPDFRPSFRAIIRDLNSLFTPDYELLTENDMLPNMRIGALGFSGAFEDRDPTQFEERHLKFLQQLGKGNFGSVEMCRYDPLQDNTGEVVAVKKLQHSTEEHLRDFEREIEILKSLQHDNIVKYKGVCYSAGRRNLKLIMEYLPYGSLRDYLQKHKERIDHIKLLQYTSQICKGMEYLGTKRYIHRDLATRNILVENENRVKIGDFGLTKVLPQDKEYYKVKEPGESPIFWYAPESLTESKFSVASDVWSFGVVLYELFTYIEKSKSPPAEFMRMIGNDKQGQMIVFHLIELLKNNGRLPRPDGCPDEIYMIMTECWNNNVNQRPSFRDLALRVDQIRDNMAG
Experimental: as §2

SYK = SYK (Homo sapiens, UniProt P43405); assay: Syk kinase activity inhibition, Caliper mobility shift assay; type: biochemical
Experimental: SYK protein kinase activity was determined using the Caliper mobility shift assay. The compound was dissolved in DMSO and diluted with kinase buffer (20 mM HEPES, 0.01% Triton X-100, 5 mM MgCl2, 1 mM MnCl2, 2 mM DTT), and 5 μL of 5 times final concentration was added to the 384-well plate Compound (10% DMSO). After adding 10 μL of 2.5-fold enzyme (with SYK) solution, incubate for 10 minutes at room temperature, and then add 10 μL of 2.5-fold substrate (Peptide FAM-P22 and ATP) solution. Incubate at 28° C. for 30 minutes, then stop the reaction by adding 25 μL of stop solution (100 mM HEPES, 0.015% Brij-35, 0.2% Coating Reagent #13, 50 mM EDTA, pH 7.5). Conversion rate data was read on a Caliper EZ Reader II (Caliper Life Sciences) The conversion rate was converted into inhibition rate data (% inhibition rate=(max−conversion rate)/(max−min)*100). Where max is the conversion of the DMSO control and min is the conversion of the enzyme-free control. Curves were plotted with compound concentration and inhibition rate on the horizontal and vertical coordinates, and the curve was fitted using XLFit excel add-in version 4.3.1 software and IC50 was calculated.

CDK4/CycD3, sequence (P11802 whole entry, species assumed): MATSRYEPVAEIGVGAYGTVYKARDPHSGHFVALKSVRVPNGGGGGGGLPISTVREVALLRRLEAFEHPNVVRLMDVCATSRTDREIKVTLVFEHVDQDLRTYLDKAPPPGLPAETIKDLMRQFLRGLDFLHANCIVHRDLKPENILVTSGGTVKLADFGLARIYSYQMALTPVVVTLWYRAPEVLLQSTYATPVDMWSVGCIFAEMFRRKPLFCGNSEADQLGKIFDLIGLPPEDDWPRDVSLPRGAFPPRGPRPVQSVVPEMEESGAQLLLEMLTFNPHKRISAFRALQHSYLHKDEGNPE
CDK4/CycD3, sequence (P30281 whole entry partner, species assumed): as the sequence (P30281 whole entry partner, species assumed) above

For `Cc1nc2c(F)cc(-c3nc(Nc4ccc5c(c4)OC[C@H]4CN(C)CCN54)ncc3F)cc2n1C(C)C` [Compound B1R], the IC50 (CDK4/CycD3) was < 10 nM, the IC50 (CDK6/cycD3) was < 50 nM and the IC50 (CDK2/CycA2) was < 10 nM.

For `Cc1nc2c(F)cc(-c3nc(Nc4ccc5c(c4)OC[C@@H]4CN(C)CCN54)ncc3F)cc2n1C(C)C` [Compound B1S], the IC50 (CDK4/CycD3) was < 10 nM, the IC50 (CDK6/cycD3) was < 50 nM and the IC50 (CDK2/CycA2) was < 10 nM.

With `Cc1nc2c(F)cc(-c3nc(Nc4ccc5c(c4)OC[C@H]4CN(C6CCOCC6)CCN54)ncc3F)cc2n1C(C)C` [Compound B2R] the Cmax [1] was 495 ng/mL, the Tmax [1] was 1 h and the half-life [1] was 5.72 h. For the same compound, the AUC(0-t) [1] was 2200 ng·h/mL, the IC50 (CDK4/CycD3) was < 10 nM and the IC50 (CDK6/cycD3) was < 50 nM. The IC50 (CDK2/CycA2) was < 10 nM.

For `Cc1nc2c(F)cc(-c3nc(Nc4ccc5c(c4)OC[C@H]4CN(C6CCN(C)CC6)CCN54)ncc3F)cc2n1C(C)C` [Compound B3R], the IC50 (CDK4/CycD3) was < 10 nM, the IC50 (CDK6/cycD3) was < 10 nM and the IC50 (CDK2/CycA2) was < 10 nM.

With `CCS(=O)(=O)N1CCN2c3ccc(Nc4ncc(C(N)=O)c(NC5CC5)n4)cc3OC[C@H]2C1` [Compound C1R] the IC50 (Jak1) was < 100 nM, the IC50 (Jak2) was < 10 nM and the IC50 (SYK) was < 10 nM.

With `CN1CCC(N2CCN3c4ccc(Nc5ncc(C(N)=O)c(NC6CC6)n5)cc4OC[C@H]3C2)CC1` [Compound C2R] the IC50 (Jak1) was < 500 nM, the IC50 (Jak2) was < 20 nM and the IC50 (SYK) was < 50 nM.

In the case of `CC(=O)N1CCN2c3ccc(Nc4ncc(C(N)=O)c(NC5CC5)n4)cc3OC[C@H]2C1` [Compound C3R], the IC50 (Jak1) is reported as < 100 nM, the IC50 (Jak2) is reported as < 10 nM and the IC50 (SYK) is reported as < 50 nM.

For `NC(=O)c1cnc(Nc2ccc3c(c2)OC[C@H]2CN(C4CCOCC4)CCN32)nc1NC1CC1` [Compound C4R], the IC50 (Jak1) was < 500 nM, the IC50 (Jak2) was < 20 nM and the IC50 (SYK) was < 50 nM.

With `CN1CCN2c3ccc(Nc4ncc(C(N)=O)c(NC5CC5)n4)cc3OC[C@H]2C1` [Compound C5R] the IC50 (Jak1) was < 100 nM, the IC50 (Jak2) was < 10 nM and the IC50 (SYK) was < 50 nM.

In the case of `NC(=O)c1cnc(Nc2ccc3c(c2)OC[C@H]2CN(C(=O)C(F)(F)F)CCN32)nc1NC1CC1` [Compound C6R], the IC50 (Jak1) is reported as < 500 nM, the IC50 (Jak2) is reported as < 50 nM and the IC50 (SYK) is reported as < 50 nM.

Compound `NC(=O)c1cnc(Nc2ccc3c(c2)OC[C@H]2CN(S(=O)(=O)C4CC4)CCN32)nc1NC1CC1` [Compound C10R] has a Cmax [1] of 451 ng/mL, a Tmax [1] of 0.5 h and a half-life [1] of 2.41 h. The AUC(0-t) [1] was 1240 ng·h/mL, the IC50 (Jak2) was < 10 nM and the IC50 (SYK) was < 10 nM.
